Measured values from ChEMBL document CHEMBL6092166, “Design, synthesis and enzymatic inhibition evaluation of novel 4-hydroxy Pd-C-Ⅲ derivatives as α-glucosidase and PTP1B dual-target inhibitors” (Eur J Med Chem, 2024).
Active and inactive are the calls of the source. The calls are words filed in the database; no cut-off is given here.

Experiments:
Alpha glucosidase [1] = target: T1, Alpha glucosidase (Homo sapiens, UniProt O43451+P10253+P14410+Q2M2H8); test: Inhibition of alpha-glucosidase (unknown origin) using p-NPG as substrate preincubated for 15 mins followed by substrate addition for 30 mins by absorbance based analysis; format: protein assay
[2] = Inhibition of alpha-amylase (unknown origin); set-up: species or system Homo sapiens
Mus musculus [3] = test: Reduction in blood glucose concentration in male Kunming mouse at 20 mg/kg preadministered for 40 mins and measured after 120 mins by sucrose loading test; format: functional, organism-based
Mus musculus [4] = test: Reduction in blood glucose concentration in male Kunming mouse assessed as decrease in glucose AUC at 20 mg/kg preadministered for 40 mins and measured after 120 mins by sucrose loading test relative to control; format: functional, organism-based
Alpha glucosidase [5] = target: T1, Alpha glucosidase; test: Inhibition of alpha-glucosidase (unknown origin) using p-NPG as substrate incubated for 15 mins by spectrophotometric analysis; format: protein assay
[6] = target: T2, Tyrosine-protein phosphatase non-receptor type 1 (Homo sapiens, UniProt P18031); test: Inhibition of PTP1B (unknown origin) using pNPP as substrate preincubated for 10 mins followed by substrate addition for 20 mins by absorbance based analysis
T2 sequence (P18031 whole entry): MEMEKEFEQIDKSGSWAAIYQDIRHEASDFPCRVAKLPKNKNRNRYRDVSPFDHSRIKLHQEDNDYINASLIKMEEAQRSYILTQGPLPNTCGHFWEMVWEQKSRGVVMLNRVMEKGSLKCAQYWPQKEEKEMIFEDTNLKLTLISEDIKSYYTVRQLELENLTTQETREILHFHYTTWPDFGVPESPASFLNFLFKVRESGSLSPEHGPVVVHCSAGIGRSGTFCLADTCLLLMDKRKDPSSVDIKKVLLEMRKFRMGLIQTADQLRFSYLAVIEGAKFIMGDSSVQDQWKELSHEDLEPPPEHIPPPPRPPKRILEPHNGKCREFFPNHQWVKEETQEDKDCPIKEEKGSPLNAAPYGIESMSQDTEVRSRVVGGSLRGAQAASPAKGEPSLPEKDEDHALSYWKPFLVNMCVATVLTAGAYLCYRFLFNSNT

Alpha glucosidase [7] = target: T1, Alpha glucosidase; test: Inhibition of alpha-glucosidase (unknown origin) activity assessed as disruption of secondary structure by measuring alpha-helix content at 40 uM by Circular dichroism spectra analysis (reference value: 40.0%); format: protein assay; set-up: scale not given: the % may be the effect or the level left
Alpha glucosidase [8] = target: T1, Alpha glucosidase; test: Binding affinity to alpha-glucosidase (unknown origin) assessed as Stem-Volmer quenching constant by fluorescence based analysis; format: protein assay
Alpha glucosidase [9] = target: T1, Alpha glucosidase; test: Binding affinity to alpha-glucosidase (unknown origin) assessed as decreased fluorescence intensity by measuring peak 1 (lamda ex/lamda em: 315/375 nm) and peak 2 ((lamda ex/lamda em: 225/395 nm) by 3D fluorescence spectra analysis; format: protein assay
Alpha glucosidase [10] = target: T1, Alpha glucosidase; test: Inhibition of alpha-glucosidase (unknown origin) activity assessed as disruption of secondary structure by measuring beta-sheet content at 10 uM by Circular dichroism spectra analysis (reference value: 13.9%); format: protein assay; set-up: scale not given: the % may be the effect or the level left
Alpha glucosidase [11] = target: T1, Alpha glucosidase; test: Inhibition of alpha-glucosidase (unknown origin) activity assessed as disruption of secondary structure by measuring beta-sheet content at 30 uM by Circular dichroism spectra analysis (reference value: 13.9%); format: protein assay; set-up: scale not given: the % may be the effect or the level left
Alpha glucosidase [12] = target: T1, Alpha glucosidase; test: Binding affinity to alpha-glucosidase (unknown origin) assessed as fluorescence intensity at 12.5 uM by fluorescence based analysis (reference value: 313.09); format: protein assay
Alpha glucosidase [13] = target: T1, Alpha glucosidase; test: Inhibition of alpha-glucosidase (unknown origin) activity assessed as disruption of secondary structure by measuring beta-turn content at 50 uM by Circular dichroism spectra analysis (reference value: 15.8%); format: protein assay; set-up: scale not given: the % may be the effect or the level left
Alpha glucosidase [14] = target: T1, Alpha glucosidase; test: Inhibition of alpha-glucosidase (unknown origin) activity assessed as disruption of secondary structure by measuring alpha-helix content at 10 uM by Circular dichroism spectra analysis (reference value: 40.0%); format: protein assay; set-up: scale not given: the % may be the effect or the level left
Alpha glucosidase [15] = target: T1, Alpha glucosidase; test: Binding affinity to alpha-glucosidase (unknown origin) by fluorescence based analysis; format: protein assay
Alpha glucosidase [16] = target: T1, Alpha glucosidase; test: Mixed inhibition of alpha-glucosidase (unknown origin) using p-NPG as substrate assessed as increased in Km and decreased in Vmax at 0 to 20 uM incubated for 15 mins by Lineweaver-Burk double reciprocal plot analysis; format: protein assay; details: dose 0-20 µM
Alpha glucosidase [17] = target: T1, Alpha glucosidase; test: Binding affinity to alpha-glucosidase (unknown origin) using p-NPG as substrate assessed as enzyme-substrate complex inhibition constant at 0 to 20 uM incubated for 15 mins by Lineweaver-Burk double reciprocal plot analysis; format: protein assay; details: dose 0-20 µM
Alpha glucosidase [18] = target: T1, Alpha glucosidase; test: Inhibition of alpha-glucosidase (unknown origin) activity assessed as disruption of secondary structure by measuring alpha-helix content at 30 uM by Circular dichroism spectra analysis (reference value: 40.0%); format: protein assay; set-up: scale not given: the % may be the effect or the level left
[19] = target: T2, Tyrosine-protein phosphatase non-receptor type 1; test: Inhibition of PTP1B (unknown origin)
Alpha glucosidase [20] = target: T1, Alpha glucosidase; test: Inhibition of alpha-glucosidase (unknown origin) activity assessed as disruption of secondary structure by measuring beta-turn content at 40 uM by Circular dichroism spectra analysis (reference value: 15.8%); format: protein assay; set-up: scale not given: the % may be the effect or the level left
Alpha glucosidase [21] = target: T1, Alpha glucosidase; test: Inhibition of alpha-glucosidase (unknown origin) activity assessed as disruption of secondary structure by measuring beta-sheet content at 40 uM by Circular dichroism spectra analysis (reference value: 13.9%); format: protein assay; set-up: scale not given: the % may be the effect or the level left
[22] = Cytotoxicity against human HEK293 cells assessed as cell survival at 250 uM incubated for 24 hrs by MTT assay; format: toxicity, cell-based; details: read-out: Survival
Alpha glucosidase [23] = target: T1, Alpha glucosidase; test: Binding affinity to alpha-glucosidase (unknown origin) assessed as association constant by fluorescence based analysis; format: protein assay
Alpha glucosidase [24] = target: T1, Alpha glucosidase; test: Binding affinity to alpha-glucosidase (unknown origin) assessed as collision quenching by fluorescence based analysis; format: protein assay
Alpha glucosidase [25] = target: T1, Alpha glucosidase; test: Inhibition of alpha-glucosidase (unknown origin) activity assessed as disruption of secondary structure by measuring random coil content at 30 uM by Circular dichroism spectra analysis (reference value: 27.1%); format: protein assay; set-up: scale not given: the % may be the effect or the level left
Alpha glucosidase [26] = target: T1, Alpha glucosidase; test: Inhibition of alpha-glucosidase (unknown origin) activity assessed as disruption of secondary structure by measuring beta-turn content at 30 uM by Circular dichroism spectra analysis (reference value: 15.8%); format: protein assay; set-up: scale not given: the % may be the effect or the level left
Alpha glucosidase [27] = target: T1, Alpha glucosidase; test: Inhibition of alpha-glucosidase (unknown origin) activity assessed as disruption of secondary structure by measuring alpha-helix content at 50 uM by Circular dichroism spectra analysis (reference value: 40.0%); format: protein assay; set-up: scale not given: the % may be the effect or the level left
Alpha glucosidase [28] = target: T1, Alpha glucosidase; test: Inhibition of alpha-glucosidase (unknown origin) activity assessed as disruption of secondary structure by measuring beta-turn content at 10 uM by Circular dichroism spectra analysis (reference value: 15.8%); format: protein assay; set-up: scale not given: the % may be the effect or the level left
Alpha glucosidase [29] = target: T1, Alpha glucosidase; test: Inhibition of alpha-glucosidase (unknown origin) activity assessed as disruption of secondary structure by measuring random coil content at 40 uM by Circular dichroism spectra analysis (reference value: 27.1%); format: protein assay; set-up: scale not given: the % may be the effect or the level left
Alpha glucosidase [30] = target: T1, Alpha glucosidase; test: Inhibition of alpha-glucosidase (unknown origin) activity assessed as disruption of secondary structure by measuring random coil content at 50 uM by Circular dichroism spectra analysis (reference value: 27.1%); format: protein assay; set-up: scale not given: the % may be the effect or the level left
Alpha glucosidase [31] = target: T1, Alpha glucosidase; test: Inhibition of alpha-glucosidase (unknown origin) activity assessed as disruption of secondary structure by measuring random coil content at 10 uM by Circular dichroism spectra analysis (reference value: 27.1%); format: protein assay; set-up: scale not given: the % may be the effect or the level left
Alpha glucosidase [32] = target: T1, Alpha glucosidase; test: Binding affinity to alpha-glucosidase (unknown origin) using p-NPG as substrate assessed as free inhibition constant at 0 to 20 uM incubated for 15 mins by Lineweaver-Burk double reciprocal plot analysis; format: protein assay
Alpha glucosidase [33] = target: T1, Alpha glucosidase; test: Binding affinity to alpha-glucosidase (unknown origin) assessed as quenching constant by fluorescence based analysis; format: protein assay
Alpha glucosidase [34] = target: T1, Alpha glucosidase; test: Mixed inhibition of alpha-glucosidase (unknown origin) using p-NPG as substrate at 0 to 20 uM incubated for 15 mins by Lineweaver-Burk double reciprocal plot analysis; format: protein assay; details: dose 0-20 µM
[35] = target: T3, Tyrosine-protein phosphatase non-receptor type 1 (Homo sapiens) (UniProt P18031); test: Inhibition of PTP1B (unknown origin) in human HepG2 cells assessed as downregulation of PTP1B protein level at 50 uM at 40 to 60 degreeC incubated for 6 hrs by Western blot based Cellular thermal shift assay; format: cell-based
T3 sequence (whole entry): T2 sequence (P18031 whole entry)

Alpha glucosidase [36] = target: T1, Alpha glucosidase; test: Inhibition of alpha-glucosidase (unknown origin) activity assessed as disruption of secondary structure by measuring beta-sheet content at 50 uM by Circular dichroism spectra analysis (reference value: 13.9%); format: protein assay; set-up: scale not given: the % may be the effect or the level left

## O=C(/C=C/c1ccccc1Cl)OCCOc1ccc2ccc(=O)oc2c1
Alpha glucosidase [1]
  IC50: 258.7 µM

## O=C(/C=C/c1cccc(C(F)(F)F)c1)OCCOc1ccc2ccc(=O)oc2c1
Alpha glucosidase [1]
  IC50: > 300 µM

## O=C(/C=C/c1ccccc1[N+](=O)[O-])OCCOc1ccc2ccc(=O)oc2c1
Alpha glucosidase [1]
  IC50: 299.7 µM

## COc1ccc(/C=C/C(=O)OCCOc2ccc3ccc(=O)oc3c2)cc1OC
Alpha glucosidase [1]
  IC50: > 300 µM

## O=C(/C=C/c1ccc(Cl)cc1)OCCOc1ccc2ccc(=O)oc2c1
Alpha glucosidase [1]
  IC50: 283.2 µM

## Cc1cc(OCCOC(=O)/C=C/c2ccc(Cl)cc2Cl)cc2oc(=O)cc(C)c12
Alpha glucosidase [1]
  IC50: 124.1 µM

## C[C@H]1O[C@H](O[C@H]2[C@H](O)[C@@H](O)[C@@H](O[C@H]3[C@H](O)[C@@H](O)C(O)O[C@@H]3CO)O[C@@H]2CO)[C@H](O)[C@@H](O)[C@@H]1N[C@H]1C=C(CO)[C@@H](O)[C@H](O)[C@H]1O (stereo partly specified) [ACARBOSE]
[2]
  IC50: 17.8 µM
Mus musculus [3]
  Activity: Active
Mus musculus [4]
  Activity: Active

## CO[C@@H]1c2cc3ccc(=O)oc3cc2OC(C)(C)[C@H]1OC(=O)C=C(C)C
Alpha glucosidase [5]
  IC50: 89.2 µM
[6]
  IC50: 6.6 µM

## O=C(/C=C/c1cccc(F)c1)OCCOc1ccc2ccc(=O)oc2c1
Alpha glucosidase [1]
  IC50: > 300 µM

## COc1cc(/C=C/C(=O)OCCOc2ccc3ccc(=O)oc3c2)ccc1O
Alpha glucosidase [1]
  IC50: > 300 µM

## Cc1c(C)c2c(C)cc(OCCOC(=O)/C=C/c3ccc(Cl)cc3Cl)cc2oc1=O
Alpha glucosidase [7]
  Activity: 28.3%
Alpha glucosidase [8]
  KSV: 9.7 10^4L/mol
Alpha glucosidase [9]
  inhibition: Active; Peak 1 Reflected The Absorption Peak Of Tyrosine Residues And Tryptophan Residues And Peak 2 Was Fluorescence Feature Of Polypeptide Backbone Structure
Alpha glucosidase [10]
  Activity: 15.3%
Alpha glucosidase [11]
  Activity: 17.9%
Alpha glucosidase [12]
  Flu intensity: 144
Alpha glucosidase [13]
  Activity: 18%
Alpha glucosidase [14]
  Activity: 37.1%
Alpha glucosidase [15]
  Activity: Active; Wavelength Of Maximum Emission Peak Red Shifted From 335 Nm To 340 Nm
Alpha glucosidase [16]
  inhibition: Active
Alpha glucosidase [17]
  Kis: 0.17 µM
Alpha glucosidase [18]
  Activity: 32.2%
[19]
  IC50: 47 µM
Alpha glucosidase [20]
  Activity: 17.8%
Alpha glucosidase [1]
  IC50: 66.3 µM
[2]
  IC50: 30.6 µM
Alpha glucosidase [21]
  Activity: 20.2%
[22]
  viability at 24 h, 250 µM: 81.8%
Alpha glucosidase [23]
  ka: 2.09 10^3L/mol
Alpha glucosidase [24]
  K: 2 10^10L/mol/s
Alpha glucosidase [25]
  Activity: 32.7%
Alpha glucosidase [26]
  Activity: 17.1%
Alpha glucosidase [27]
  Activity: 27.6%
Mus musculus [3]
  Activity: Active
Alpha glucosidase [28]
  Activity: 16.3%
Alpha glucosidase [29]
  Activity: 35.4%
Alpha glucosidase [30]
  Activity: 36.3%
Alpha glucosidase [31]
  Activity: 29.1%
Alpha glucosidase [32]
  Ki: 0.25 µM
Alpha glucosidase [33]
  Kq: 9.7 10^12L/mol/s
Alpha glucosidase [34]
  inhibition: Active; Intersection In Second Quadrant Of Double Reciprocal Graph Observed; Compound Binds To Free Enzyme And Enzyme-Substrate Complex
[35]
  inhibition: Active
Mus musculus [4]
  Activity: Active
Alpha glucosidase [36]
  Activity: 20.9%

## COc1ccc(/C=C/C(=O)OCCOc2ccc3ccc(=O)oc3c2)cc1Br
Alpha glucosidase [1]
  IC50: 286.2 µM

## O=C(/C=C/c1ccc(Br)cc1)OCCOc1ccc2ccc(=O)oc2c1
Alpha glucosidase [1]
  IC50: 263.2 µM

## CCN(CC)c1ccc(/C=C/C(=O)OCCOc2ccc3ccc(=O)oc3c2)cc1
Alpha glucosidase [1]
  IC50: > 300 µM

## O=C(/C=C/c1ccc(Cl)cc1Cl)OCCOc1ccc2ccc(=O)oc2c1
Alpha glucosidase [1]
  IC50: 116.5 µM
